Source: patent publication US9895330B2, “IDO inhibitors” (BRISTOL-MYERS SQUIBB COMPANY, priority 2013, dated 2018)
pIC50: −log10 of the molar value.

Each compound was assayed against T1, IDO (IFNγ-treated Hela cells) (Homo sapiens, UniProt P14902) (assay: IDO Kynurenine Assay with Hela Cells). Conditions: IFNγ 10 ng/ml, 20 hours incubation, kynurenine absorbance at 490 nm, read-out: Hela Cells LLE_IDO_ABS_DR (IC50).
T1 construct: endogenous in cells; host or cells: Hela cells treated with IFNγ (10 ng/ml)
T1 sequence (P14902 whole entry): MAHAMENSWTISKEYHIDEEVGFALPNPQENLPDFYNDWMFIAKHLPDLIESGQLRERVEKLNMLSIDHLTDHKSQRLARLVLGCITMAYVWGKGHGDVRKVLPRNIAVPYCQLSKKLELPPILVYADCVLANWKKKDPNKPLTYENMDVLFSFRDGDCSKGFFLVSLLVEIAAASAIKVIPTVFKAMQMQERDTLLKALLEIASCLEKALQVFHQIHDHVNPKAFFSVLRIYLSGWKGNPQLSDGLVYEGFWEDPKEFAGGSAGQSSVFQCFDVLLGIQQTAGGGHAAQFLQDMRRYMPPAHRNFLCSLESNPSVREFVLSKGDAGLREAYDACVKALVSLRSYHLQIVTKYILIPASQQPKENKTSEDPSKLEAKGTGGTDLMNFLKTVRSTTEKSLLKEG
Format: cell-based
Method: IDO Kynurenine Assay with Hela Cells
Hela cells were seeded at 30,000 cells per well in 40 ul RPMI/phenol red free media contains 10% FBS in a 384-well black wall clear bottom tissue culture plate (Matrix Technologies LLC). 270 nl of certain concentration of compound was then added to each well using ECHO liquid handling systems. 40 ul of IFNγ (R&D, 285-IF-100) at final concentration of 10 ng/ml was then added to column 2-24 with media to column 1 as control. The cells were incubated for 20 hours in 37° C. incubator with 5% CO2.
The compound treatments were stopped by adding trichloroacetic acid (Sigma-Aldrich) to a final concentration at 0.2%. The cell plate was further incubated at 50° C. for 30 minute. The equal volume supernatant (20 uL) and 0.2% (w/v) Ehrlich reagent (4-dimethylaminobenzaldehyde, Sigma-Aldrich) in glacial acetic acid were mixed in a new clear bottom 384-well plate. This plate was then incubated at room temperature for 30 minute. The absorbance at 490 nm was measured on Envision plate reader.
Compound IC50 values were calculated using the counts of no IFNγ control as one hundred percent inhibition, and counts of no compound but DMSO treatment as zero percent inhibition.

Structure (SMILES)	pIC50
Cc1ccc(CC(=O)Nc2cc(-c3cc(F)ccc3C(=O)O)ccc2N(CC(C)C)CC(C)C)cc1 [Example 1, 4′-(Diisobutylamino)-5-fluoro-3′-(2-p-tolylacetamido)biphenyl-2-carboxylic acid]	8.00
Cc1ccc(CC(=O)Nc2cc(-c3ccccc3-c3nnn[nH]3)ccc2N(CC(C)C)CC(C)C)cc1 [Example 2, N-(4-(Diisobutylamino)-2′-(1H-tetrazol-5-yl)biphenyl-3-yl)-2-p-tolylacetamide]	8.30
CC(C)CN(Cc1ccccc1)c1ccc(-c2ccccc2-c2nnn[nH]2)cc1NC(=O)Cc1ccccc1C(F)(F)F [Example 3, N,N-(4-(Benzyl(isobutyl)amino)-2′-(1H-tetrazol-5-yl)biphenyl-3-yl)-2-(2-(trifluoromethyl)phenyl)acetamide]	7.70
Cc1ccc(CC(=O)Nc2cc(-c3ccccc3C(=O)O)ccc2N(CC(C)C)CC(C)C)cc1 [Example 4, 4′-(diisobutylamino)-3′-(2-p-tolylacetamido) biphenyl-2-carboxylic acid]	8.00
CC(C)CN(c1ccc(-c2ccccc2C(=O)O)cc1NC(=O)Cc1ccccc1F)C1CCCCC1 [Example 5, 4′-(cyclohexyl(isobutyl)amino)-3′-(2-(2-fluorophenyl)acetamido) biphenyl-2-carboxylic acid]	7.40
CC(C)CN(c1ccc(-c2cc(F)ccc2C(=O)O)cc1NC(=O)Cc1ccccc1F)C1CCCCC1 [Example 6, 4′-(cyclohexyl(isobutyl)amino)-5-fluoro-3′-(2-(2-fluorophenyl)acetamido) biphenyl-2-carboxylic acid]	7.30
CC(C)CN(c1ccc(-c2ccccc2-c2nnn[nH]2)cc1NC(=O)Cc1ccccc1C(F)(F)F)C1CCCCC1 [Example 7, N-(4-(cyclohexyl(isobutyl)amino)-2′-(1H-tetrazol-5-yl)biphenyl-3-yl)-2-(2-(trifluoromethyl)phenyl)acetamide]	6.89
CC(C)CN(c1ccc(-c2ccccc2C(=O)O)cc1NC(=O)Cc1ccccc1C(F)(F)F)C1CCCCC1 [Example 8, 4′-(cyclohexyl(isobutyl)amino)-3′-(2-(2-(trifluoromethyl)phenyl)acetamido)biphenyl-2-carboxylic acid]	6.03
CC(C)CN(c1ccc(-c2ccccc2-c2nnn[nH]2)cc1NC(=O)Cc1ccccc1F)C1CCCCC1 [Example 9, N-(4-(cyclohexyl(isobutyl)amino)-2′-(1H-tetrazol-5-yl)biphenyl-3-yl)-2-(2-fluorophenyl)acetamide]	7.70
CCCCN(c1ccc(-c2ccccc2-c2nnn[nH]2)cc1NC(=O)Cc1ccccc1F)C1CCCCC1 [Example 10, N-(4-(butyl(cyclohexyl)amino)-2′-(1H-tetrazol-5-yl)-[1,1′-biphenyl]-3-yl)-2-(2-fluorophenyl) acetamide]	8.15
COc1ccc(CC(=O)Nc2cc(-c3ccccc3-c3nnn[nH]3)ccc2N(CC(C)C)CC(C)C)cc1 [Example 11, N-(4-(diisobutylamino)-2′-(1H-tetrazol-5-yl)biphenyl-3-yl)-2-(4-methoxyphenyl)acetamide]	8.39
CC(C)CN(CC(C)C)c1ccc(-c2ccccc2-c2nnn[nH]2)cc1NC(=O)Cc1ccc(C(C)C)cc1 [Example 13, N-(4-(diisobutylamino)-2′-(1H-tetrazol-5-yl)biphenyl-3-yl)-2-(4-isopropylphenyl) acetamide]	5.88
CC(C)CN(CC(C)C)c1ccc(-c2ccccc2-c2nnn[nH]2)cc1NC(=O)Cc1ccc2c(c1)OCO2 [Example 14, 2-(benzo[d][1,3]dioxol-5-yl)-N-(4-(diisobutylamino)-2′-(1H-tetrazol-5-yl)biphenyl-3-yl)acetamide]	7.70
CC(C)CN(CC(C)C)c1ccc(-c2ccccc2-c2nnn[nH]2)cc1NC(=O)Cc1ccc(OC(F)(F)F)cc1 [Example 15, N-(4-(diisobutylamino)-2′-(1H-tetrazol-5-yl)biphenyl-3-yl)-2-(4-(trifluoromethoxy)phenyl)acetamide]	7.05
CC(C)CN(CC(C)C)c1ccc(-c2ccccc2-c2nnn[nH]2)cc1NC(=O)Cc1cccc(F)c1 [Example 16, N-(4-(diisobutylamino)-2′-(1H-tetrazol-5-yl)biphenyl-3-yl)-2-(3-fluorophenyl)acetamide]	8.05
CC(C)CN(CC(C)C)c1ccc(-c2ccccc2-c2nnn[nH]2)cc1NC(=O)Cc1ccc(Cl)cc1 [Example 17, 2-(4-chlorophenyl)-N-(4-(diisobutylamino)-2′-(1H-tetrazol-5-yl)biphenyl-3-yl)acetamide]	8.35
COc1ccc(CC(=O)Nc2cc(-c3ccccc3-c3nnn[nH]3)ccc2N(CC(C)C)CC(C)C)c(C(F)(F)F)c1 [Example 18, N-(4-(diisobutylamino)-2′-(1H-tetrazol-5-yl)biphenyl-3-yl)-2-(4-methoxy-2-(trifluoromethyl)phenyl)acetamide]	7.40
CC(C)CN(CC(C)C)c1ccc(-c2ccccc2-c2nnn[nH]2)cc1NC(=O)Cc1ccccc1F [Example 19, N-(4-(diisobutylamino)-2′-(1H-tetrazol-5-yl)biphenyl-3-yl)-2-(2-fluorophenyl)acetamide]	7.70
Cc1ccc(CC(=O)Nc2cc(-c3ccccc3-c3nnn[nH]3)ccc2N(CC(C)C)CC(C)C)c(F)c1 [Example 20, N-(4-(diisobutylamino)-2′-(1H-tetrazol-5-yl)biphenyl-3-yl)-2-(2-fluoro-4-methylphenyl)acetamide]	8.04
Cc1ccc(CC(=O)Nc2cc(-c3ccccc3-c3nnn[nH]3)ccc2N2C[C@H](C)C[C@H](C)C2)cc1 [Example 21, N-(4-(cis-3,5-Dimethylpiperidin-1-yl)-2′-(1H-tetrazol-5-yl)-[1,1′-biphenyl]-3-yl)-2-(p-tolyl)acetamide]	6.28
C[C@@H]1C[C@H](C)CN(c2ccc(-c3ccccc3-c3nnn[nH]3)cc2NC(=O)Cc2ccc(F)cc2)C1 [Example 22, N-(4-(cis-3,5-Dimethylpiperidin-1-yl)-2′-(1H-tetrazol-5-yl)-[1,1′-biphenyl]-3-yl)-2-(4-fluorophenyl)acetamide]	5.92
CC(C)CN(CC(C)C)c1ccc(-c2ccccc2-c2nnn[nH]2)cc1NC(=O)CC#N [Example 23]	6.55

Structure (SMILES)	pIC50
CC(C)CN(CC(C)C)c1ccc(-c2ccccc2-c2nnn[nH]2)cc1NC(=O)Cc1cccc2ccccc12 [Example 24]	7.10
CC(C)CN(CC(C)C)c1ccc(-c2ccccc2-c2nnn[nH]2)cc1NC(=O)Cc1ccccc1Cl [Example 25]	7.70
CC(C)CN(CC(C)C)c1ccc(-c2ccccc2-c2nnn[nH]2)cc1NC(=O)Cc1ccccc1C(F)(F)F [Example 26]	7.30
CC(C)CN(CC(C)C)c1ccc(-c2ccccc2-c2nnn[nH]2)cc1NC(=O)Cc1cccc(C(F)(F)F)c1 [Example 27]	6.80
CC(C)CN(CC(C)C)c1ccc(-c2ccccc2-c2nnn[nH]2)cc1NC(=O)Cc1ccc(O)cc1 [Example 28]	7.05
CC(C)CN(CC(C)C)c1ccc(-c2ccccc2-c2nnn[nH]2)cc1NC(=O)Cc1ccc(C(F)(F)F)cc1 [Example 29]	7.22
CC(C)CN(CC(C)C)c1ccc(-c2ccccc2-c2nnn[nH]2)cc1NC(=O)Cc1ccccn1 [Example 30]	6.52
CC(C)CN(CC(C)C)c1ccc(-c2ccccc2-c2nnn[nH]2)cc1NC(=O)Cc1cccnc1 [Example 31]	7.15
CC(C)CN(CC(C)C)c1ccc(-c2ccccc2-c2nnn[nH]2)cc1NC(=O)CS(=O)(=O)c1ccccc1 [Example 32]	5.40
CC(C)CN(CC(C)C)c1ccc(-c2ccccc2-c2nnn[nH]2)cc1NC(=O)CC1CC1 [Example 33]	6.30
CC(C)CN(CC(C)C)c1ccc(-c2ccccc2-c2nnn[nH]2)cc1NC(=O)Cc1ccc(Oc2ccccc2)cc1 [Example 34]	6.60
CC(C)CN(CC(C)C)c1ccc(-c2ccccc2-c2nnn[nH]2)cc1NC(=O)CC(F)(F)F [Example 35]	6.57
Cc1nc(CC(=O)Nc2cc(-c3ccccc3-c3nnn[nH]3)ccc2N(CC(C)C)CC(C)C)cs1 [Example 36]	6.40
Cc1noc(C)c1CC(=O)Nc1cc(-c2ccccc2-c2nnn[nH]2)ccc1N(CC(C)C)CC(C)C [Example 37]	5.89
CC(C)CN(CC(C)C)c1ccc(-c2ccccc2-c2nnn[nH]2)cc1NC(=O)CN1CCOCC1 [Example 38]	5.60
CC(C)CN(CC(C)C)c1ccc(-c2ccccc2-c2nnn[nH]2)cc1NC(=O)Cc1cccc(F)c1F [Example 39]	7.30
Cc1ccc(OCC(=O)Nc2cc(-c3ccccc3-c3nnn[nH]3)ccc2N(CC(C)C)CC(C)C)cc1 [Example 40]	6.80
COCCOCC(=O)Nc1cc(-c2ccccc2-c2nnn[nH]2)ccc1N(CC(C)C)CC(C)C [Example 41]	5.74
CC(C)CN(CC(C)C)c1ccc(-c2ccccc2-c2nnn[nH]2)cc1NC(=O)COc1cccnc1 [Example 42]	6.30
CC(C)CN(CC(C)C)c1ccc(-c2ccccc2-c2nnn[nH]2)cc1NC(=O)Cc1ccc(C#N)cc1 [Example 43]	8.29
CC(C)CN(CC(C)C)c1ccc(-c2ccccc2-c2nnn[nH]2)cc1NC(=O)Cc1cncc(Br)c1 [Example 44]	7.10
CC(C)CN(CC(C)C)c1ccc(-c2ccccc2-c2nnn[nH]2)cc1NC(=O)Oc1ccc(Cl)cc1 [Example 45, 4-Chlorophenyl (4-(diisobutylamino)-2′-(1H-tetrazol-5-yl)-[1,1′-biphenyl]-3-yl)carbamate]	5.41
